The values below come from publication PMC4775225, “Bromodomain inhibition of the transcriptional coactivators CBP/EP300 as a therapeutic strategy to target the IRF4 network in multiple myeloma” (eLife, 2016).

Assay [1] has as its target CBP-bromodomain/BRD9 ZsGreen fusion protein (Homo sapiens, UniProt Q92793). The experiment in a line: cell-based.
Assay [2] addresses T1, CBP bromodomain and histone H3.3 (Homo sapiens, UniProt Q92793).
T1 construct: NanoBRET with the isolated CBP bromodomain and histone H3.3 in 293 cells; host or cells: HEK293
Put plainly: NanoBRET, CBP bromodomain/histone H3.3 in HEK293 cells. The class given is cell-based. The settings on record: 293 cells, CBP bromodomain and histone H3.3; n = 3 technical replicates ± SEM. The procedure:
NanoBRET was carried out using the NanoBRET Protein:Protein Interaction System (Promega, Inc.; Madison, WI) according to the manufacturer’s instructions. Briefly, HEK293 cells were transiently co-transfected with a vector for histone H3.3-HaloTag and a NanoLuc tagged CBP bromodomain expression construct. Transfected cells were plated in 96 -well plates in the presence or absence of ligand, then treated with dose titrations of indicated compounds. Readings were performed on an Envision Plate Reader (Perkin Elmer, Inc.; Waltham, MA) and BRET readings were calculated by dividing the acceptor emission value (600 nm) by the donor emission value (460/50 nm).
(In general: Bioluminescence resonance energy transfer reports proximity on the nanometre scale.)

Assay [3] has as its target CBP bromodomain (Homo sapiens, UniProt Q92793). Put plainly: biochemical. The settings on record: read-out: DTm.
Assay [4] deals with H3K18 and H3K27 acetylation in LP-1 cells. Put plainly: Western analysis of global histone acetylation. The class given is cell-based, human. The settings on record: LP-1, 16 hr. How it is done: Whole cell extracts were prepared by lysis in RIPA buffer + EDTA (Boston Bioproducts, Inc.; Ashland, MA) with protease inhibitor cocktail (Roche Life Sciences; Indianapolis, IN). Extracts were subjected to SDS-PAGE and Western analysis with MYC (Cell Signaling (Danvers, MA) #5605), IRF4 (Cell Signaling #4964 or #4948), GAPDH (Life Technologies AM4300), CBP (Santa Cruz (Dallas, TX) sc-369), EP300 (Santa Cruz sc-584), or β-actin (Life Technologies AM4302) primary antibodies. For histone analysis, extracts were prepared by sulfuric acid extraction of permeablized nuclei, and extracted histones were subjected to SDS-PAGE and Western analysis with H3K18ac (Cell Signaling #9675), H3K27ac (EMD Millipore (Billerica, MA) 07–360), or H4 (Abcam (Cambridge, MA) 31830). Blots were incubated with DyLight conjugated secondary antibodies, imaged and quantified with a Licor fluorescence imager (Licor, Inc.; Lincoln, NE), or with HRP- conjugated secondary antibodies for ECL visualization.

Sequence of CBP bromodomain (Q92793 1085-1192 limits assumed): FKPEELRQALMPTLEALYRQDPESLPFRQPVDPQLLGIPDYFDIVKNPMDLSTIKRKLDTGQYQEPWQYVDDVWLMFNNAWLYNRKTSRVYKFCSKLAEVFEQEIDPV
T1 sequence (Q92793 1085-1192 limits assumed): as above
Sequence of CBP-bromodomain/BRD9 ZsGreen fusion protein (Q92793 1085-1192): as the sequence (Q92793 1085-1192 limits assumed) above
Sequence of CBP-bromodomain/BRD9 ZsGreen fusion protein (Q9H8M2 with tags, fused parts or gaps partner): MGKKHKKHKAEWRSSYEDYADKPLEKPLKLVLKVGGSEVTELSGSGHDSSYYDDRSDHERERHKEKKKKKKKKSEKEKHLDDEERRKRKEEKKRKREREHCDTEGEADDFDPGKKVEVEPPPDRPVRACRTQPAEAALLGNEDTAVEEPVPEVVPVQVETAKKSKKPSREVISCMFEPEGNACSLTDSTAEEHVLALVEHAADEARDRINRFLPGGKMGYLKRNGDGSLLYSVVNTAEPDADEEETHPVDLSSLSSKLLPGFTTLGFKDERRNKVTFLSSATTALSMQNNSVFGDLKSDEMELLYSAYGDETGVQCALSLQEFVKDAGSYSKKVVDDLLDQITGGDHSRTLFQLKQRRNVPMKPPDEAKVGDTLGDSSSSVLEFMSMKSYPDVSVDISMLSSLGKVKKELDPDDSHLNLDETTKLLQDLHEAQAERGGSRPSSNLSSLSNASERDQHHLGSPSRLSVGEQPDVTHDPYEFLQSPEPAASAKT

In general, EC50 refers to the concentration that produces a half-maximal response. High values mean lower potency in that assay, low ones higher potency in that assay. Turning to `CCC(=O)N1CCOc2c(cc(-c3ccc(OC)c(OC)c3)cc2OC[C@H]2CCCN(C)C2)C1` [I-CBP112], the EC50 in assay [1] amounted to 1.7 ± 0.34 µM. For the same molecule, in assay [2], the “IC50 (μM), CBP BRET (EC50, NanoBRET)” value was found to be 0.25 ± 0.03 µM. Moreover, in assay [3], the ΔTm at 20 µM turned out to be 4.52 °C.
With `COc1ccc(CCc2nc3cc(-c4c(C)noc4C)ccc3n2C[C@H](C)N2CCOCC2)cc1Cl` [SGC-CBP30], the “changes in the global levels of H3K18 or H3K27 acetylation” value in assay [4] is listed as “did not observe any significant changes”.
